Experimental data reported in PMC9705435, “Thiocarbazate building blocks enable the construction of azapeptides for rapid development of therapeutic candidates” (Nature Communications, 2022).
Peptide text beside a SMILES is read from it.

Experiments:
in vitro = details: male, C57BL/6J, mouse, blood
3T3 cells = molecular target: T1, 3T3 cells (Mus musculus, UniProt P32299); assay: PGE2 induction in 3T3 fibroblasts (ELISA); format: cell-based; details: 7 min, serum-free medium
T1 sequence (P32299 1-392): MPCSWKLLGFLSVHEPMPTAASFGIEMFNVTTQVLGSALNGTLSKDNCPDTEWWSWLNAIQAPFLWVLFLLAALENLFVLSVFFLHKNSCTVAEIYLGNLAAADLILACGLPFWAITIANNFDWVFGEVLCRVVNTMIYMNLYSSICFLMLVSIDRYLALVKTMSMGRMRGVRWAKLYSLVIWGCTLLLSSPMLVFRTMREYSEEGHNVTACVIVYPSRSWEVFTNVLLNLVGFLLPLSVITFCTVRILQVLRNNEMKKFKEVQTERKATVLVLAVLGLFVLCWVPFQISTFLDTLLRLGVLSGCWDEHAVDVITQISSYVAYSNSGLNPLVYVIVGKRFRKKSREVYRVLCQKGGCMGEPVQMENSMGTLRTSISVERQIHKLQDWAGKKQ
Description: Subconfluent monolayers of 3T3 cells were incubated with test compounds for 7 min in serum-free medium and supernatants were collected and analyzed for PGE2 by ELISA.
5.1 In vitro PGE2 induction
3T3 Swiss Albino cell line (ATCC CCL-92) was purchased from American Type Culture Collection (Manassas, VA).
Following trypsinization, cells were washed and resuspended in DMEM-Complete at a cell density of 0.03 x 10^6 cells per ml. Cells were seeded into 96 -well flat-bottomed culture plates (6 x 10^3 cells per well in 200 µl). After one day of culture, 3T3 cell monolayers were washed two times in pre-warmed DMEM supplemented with 20 mM HEPES (DMEM-HEPES) and DMEM-HEPES
supernatants were collected and immediately frozen at -20°C for future PGE2 analyses. PGE2 levels in supernatants were determined using PGE2 ELISA kit (Enzo Life Sciences, Farmingdale, NY) following manufacturer’s instructions. Samples were assayed in quadruplicate. PGE2 ELISA data were analyzed using GraphPad Prism Version 9.3.1.

HMGB1/MD-2 binding = molecular target: T2, HMGB1/MD-2 binding (Homo sapiens, UniProt Q9Y6Y9); assay: SPR HMGB1/MD-2 binding inhibition assay; details: immobilized disulfide HMGB1, MD-2 0.25 µM
T2 construct: purchased R&D Systems 1787-MD
T2 sequence (Q9Y6Y9 17-160 limits assumed): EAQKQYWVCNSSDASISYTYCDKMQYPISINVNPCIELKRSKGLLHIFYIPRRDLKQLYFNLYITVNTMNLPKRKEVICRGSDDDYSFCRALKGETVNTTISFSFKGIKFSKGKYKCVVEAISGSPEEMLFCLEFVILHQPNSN

Structure (SMILES) | half-life (in vitro) | EC50 (3T3 cells) | half-life (in vitro; Ex-vivo stability t 1/2) | IC50 (HMGB1/MD-2 binding)
NC(N)=NCCC[C@H](NC(=O)[C@H](Cc1ccccc1)NC(=O)[C@@H]1CCCN1C(=O)[C@H](CO)NC(=O)[C@H](Cc1ccccc1)NC(=O)CNC(=O)[C@@H]1CCCN1C(=O)[C@@H]1CCCN1C(=O)[C@@H](N)CCCN=C(N)N)C(=O)O [Bradykinin, reference compound] (H-RPPGFSPFR-OH) | 5.29 ± 0.5 min | 0.0444 µM | – | –
NC(=O)CCN(NC(=O)[C@H](CO)NC(=O)[C@H](CO)NC(=O)[C@@H](N)Cc1ccccc1)C(N)=O [Compound 58, FSSazaQ^4-NH2] | – | – | 2.9 ± 0.2 min | 0.423 µM
